From US20230393148A1, “KITS, REAGENTS AND METHODS FOR THE ASSESSMENT OF LIVER DISEASES” (The General Hospital Corporation, priority 2020, published 2023)
* marks the point of attachment. Hexenoyl(3E) = CC/C=C/CC(=O)*

Legend:
CASP8 = assay: Plasma CASP8 by Olink proximity extension assay, randomized trial of tesamorelin vs placebo; format: in vivo, human; settings: HIV-associated NAFLD, tesamorelin 2 mg daily, change over 12 months, plasma NPX, mean ± SD, n = 20
Protocol: (§1) A randomized, double blind trial in which individuals with HIV-associated NAFLD were assigned to receive the growth hormone-releasing hormone (GHRH) analogue tesamorelin 2 mg daily or identical placebo for 12 months (7). […] Changes in circulating levels of proteins corresponding to top leading-edge genes in pathways responsive to tesamorelin between treatment groups were investigated, and the relationships of these proteins to histologic, radiographic, and transcriptomic indices was assessed to identify plasmatic markers of NAFLD/NASH and elucidate potential mechanisms of tesamorelin response.
(§2) 61 men and women 18-70 years old who had documented HIV infection and liver steatosis as defined by hepatic fat fraction ≥5% on ^1H-magnetic resonance spectroscopy (^1H-MRS) were enrolled. […]
(§3) Study procedures for the parent clinical trial have been described in detail elsewhere (7, 9). […] Serum IGF-1 was measured using standard techniques (Quest Laboratories).
(§4) For this analysis, change in targeted proteins over 12 months was assessed using an Olink® Multiplex proximity extension assay (PEA) platform. The PEA is an affinity-based assay that characterizes abundance levels of pre-determined sets of proteins. […] The resultant DNA sequence is detected and quantified using standard real-time PCR on the Fluidigm BioMark™ HD real-time PCR platform. […]

CCL20 = assay: Plasma CCL20 by Olink proximity extension assay, randomized trial of tesamorelin vs placebo; format: in vivo, human; settings: HIV-associated NAFLD, tesamorelin 2 mg daily, change over 12 months, plasma NPX, mean ± SD, n = 20
Protocol: as §1, §2, §3, §4

hallmark gene pathways = settings: liver biopsy, pre- to post-treatment (12 months), tesamorelin versus placebo, GSEA FDR <0.05; cited from earlier work
CXCL12 = assay: Plasma CXCL12 by Olink proximity extension assay, randomized trial of tesamorelin vs placebo; format: in vivo, human; settings: HIV-associated NAFLD, tesamorelin 2 mg daily, change over 12 months, plasma NPX, mean ± SD, n = 20
Protocol: as §1, §2, §3, §4

NCR1 = assay: Plasma NCR1 by Olink proximity extension assay, randomized trial of tesamorelin vs placebo; format: in vivo, human; settings: HIV-associated NAFLD, tesamorelin 2 mg daily, change over 12 months, plasma NPX, mean ± SD, n = 20
Protocol: as §1, §2, §3, §4

CRTAM = assay: Plasma CRTAM by Olink proximity extension assay, randomized trial of tesamorelin vs placebo; format: in vivo, human; settings: HIV-associated NAFLD, tesamorelin 2 mg daily, change over 12 months, plasma NPX, mean ± SD, n = 20
Protocol: as §1, §2, §3, §4

TGFB1 = assay: Plasma TGFB1 by Olink proximity extension assay, randomized trial of tesamorelin vs placebo; format: in vivo, human; settings: HIV-associated NAFLD, tesamorelin 2 mg daily, change over 12 months, plasma NPX, mean ± SD, n = 20
Protocol: as §1, §2, §3, §4

TNFRSF21 = assay: Plasma TNFRSF21 by Olink proximity extension assay, randomized trial of tesamorelin vs placebo; format: in vivo, human; settings: HIV-associated NAFLD, tesamorelin 2 mg daily, change over 12 months, plasma NPX, mean ± SD, n = 20
Protocol: as §1, §2, §3, §4

CSF1 = assay: Plasma CSF1 by Olink proximity extension assay, randomized trial of tesamorelin vs placebo; format: in vivo, human; settings: HIV-associated NAFLD, tesamorelin 2 mg daily, change over 12 months, plasma NPX, mean ± SD, n = 20
Protocol: as §1, §2, §3, §4

VEGFA = assay: Plasma VEGFA by Olink proximity extension assay, randomized trial of tesamorelin vs placebo; format: in vivo, human; settings: HIV-associated NAFLD, tesamorelin 2 mg daily, change over 12 months, plasma NPX, mean ± SD, n = 20
Protocol: as §1, §2, §3, §4

trans-3-hexenoyl-GHRH(1-44)-NH2 ({Hexenoyl(3E)}-YADAIFTNSYRKVLGQLSARKLLQDIMSRQQGESNQERGARARL-NH2) [Tesamorelin]
Log2-Fold change plasma CASP8 (CASP8): −0.37 ± 0.72
Log2-Fold change plasma CCL20 (CCL20): −0.28 ± 0.88
Log2-Fold change plasma CCL20 (CCL20; listed as tesamorelin): −0.28±0.88
13 hepatic gene sets involved in inflammation, tissue repair, and cell division, regulation with treatment (hallmark gene pathways): downregulated
Hepatic gene set pertaining to oxidative phosphorylation, regulation with treatment (hallmark gene pathways): upregulated
Log2-Fold change plasma CXCL12 (CXCL12): −0.03 ± 0.18
Log2-Fold change plasma NCR1 (NCR1): −0.20 ± 0.52
Log2-Fold change plasma CRTAM (CRTAM): −0.35 ± 0.73
Log2-Fold change plasma TGFB1 (TGFB1): −0.35±0.56
Log2-Fold change plasma TGFB1 (TGFB1; listed as tesamorelin): −0.35±0.56
Log2-Fold change plasma TNFRSF21 (TNFRSF21): −0.13 ± 0.22
Log2-Fold change plasma CSF1 (CSF1): −0.17±0.21
Log2-Fold change plasma CSF1 (CSF1; listed as tesamorelin): −0.17±0.21
Log2-Fold change plasma VEGFA (VEGFA): −0.20±0.35
Log2-Fold change plasma VEGFA (VEGFA; listed as tesamorelin): −0.20±0.35
